This note sets out measurements from ChEMBL document CHEMBL2086309, “Discovery of liver selective non-steroidal glucocorticoid receptor antagonist as novel antidiabetic agents” (Bioorg Med Chem Lett, 2012).

Series [1] has as its target T1, Glucocorticoid receptor (Homo sapiens, UniProt P04150).
T1 sequence (P04150 whole entry): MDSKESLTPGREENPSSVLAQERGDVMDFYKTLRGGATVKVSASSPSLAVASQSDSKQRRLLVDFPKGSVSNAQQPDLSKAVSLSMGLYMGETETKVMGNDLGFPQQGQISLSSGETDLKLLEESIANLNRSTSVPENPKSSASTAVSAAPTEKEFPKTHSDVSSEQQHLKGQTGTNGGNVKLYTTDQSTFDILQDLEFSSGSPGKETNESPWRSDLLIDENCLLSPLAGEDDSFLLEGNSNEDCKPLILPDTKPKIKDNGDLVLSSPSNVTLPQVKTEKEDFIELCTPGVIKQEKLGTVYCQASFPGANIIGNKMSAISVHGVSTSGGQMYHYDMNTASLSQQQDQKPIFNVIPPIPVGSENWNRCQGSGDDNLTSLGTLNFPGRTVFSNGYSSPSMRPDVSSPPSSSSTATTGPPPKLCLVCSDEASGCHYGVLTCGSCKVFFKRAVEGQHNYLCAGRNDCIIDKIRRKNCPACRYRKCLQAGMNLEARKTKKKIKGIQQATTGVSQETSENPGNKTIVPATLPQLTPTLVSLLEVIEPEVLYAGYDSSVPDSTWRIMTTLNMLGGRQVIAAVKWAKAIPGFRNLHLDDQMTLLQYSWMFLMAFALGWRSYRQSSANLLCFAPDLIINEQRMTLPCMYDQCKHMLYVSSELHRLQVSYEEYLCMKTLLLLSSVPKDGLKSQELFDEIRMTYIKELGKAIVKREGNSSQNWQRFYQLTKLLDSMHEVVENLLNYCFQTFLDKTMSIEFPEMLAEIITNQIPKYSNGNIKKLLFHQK
Nature of the series: Displacement of [3H]dexamethasone from human glucocorticoid receptor expressed in baculovirus infected Sf9 cells after overnight incubation by scintillation counting.

The target in series [2] is T1, Glucocorticoid receptor. Nature of the series: Antagonist activity at human glucocorticoid receptor expressed in GRAF cells assessed as inhibition of dexamethasone-induced alkaline phosphatase expression after 48 hrs by reporter gene assay. Format: functional, cell-based.
A short description of series [3]: Half life in Sprague-Dawley rat at 20 mg/kg, po administered as single dose. Format: ADME, organism-based. Set-up: dose 20 mg/kg, route oral. To be noted: in vivo.
The nature of series [4]: AUC (0 to infinity) in Sprague-Dawley rat at 20 mg/kg, po administered as single dose. Set-up: time infinity, dose 20 mg/kg, route oral. The note with it: plasma. Format: ADME, organism-based.
Series [5] in a line: Oral bioavailability in Sprague-Dawley rat. To be noted: in vivo. It counts as ADME, organism-based.
The nature of series [6]: Ratio of drug uptake in liver to plasma in Sprague-Dawley rat at 20 mg/kg, po administered as single dose. It counts as ADME, organism-based. Set-up: dose 20 mg/kg, route oral.
Series [7] deals with Mus musculus. The series can be described thus: Antidiabetic activity in ob/ob mouse assessed as insulin level at 20 mg/kg, po administered BID for 28 days measured 16 hrs post-last dose by ELISA (reference value: 13.6+/-2.3 ng/mL). It counts as functional.
The subject of series [8] is Mus musculus. The series can be described thus: Antidiabetic activity in ob/ob mouse assessed as Hb1Ac level at 10 mg/kg, po administered BID for 28 days measured 16 hrs post-last dose (reference value: 9.3+/-0.4%). It counts as functional.
Series [9] concerns Mus musculus. The series can be described thus: Antihyperlipidemic activity in ob/ob mouse assessed as free fatty acid level at 10 mg/kg, po administered BID for 28 days measured 16 hrs post-last dose (reference value: 1.96+/-0.09 mEq/L). Format: functional.
In series [10] the test system is Mus musculus. The series can be described thus: Antihyperlipidemic activity in ob/ob mouse assessed as cholesterol level at 10 mg/kg, po administered BID for 28 days measured 16 hrs post-last dose (reference value: 331.2+/-17.9 mg/dL). Format: functional.
Series [11] concerns Mus musculus. Nature of the series: Hepatotoxicity in ob/ob mouse assessed as AST level at 20 mg/kg, po administered BID for 28 days measured st 16 hrs post-last dose (reference value: 332.2+/-39.1 U/L). It counts as toxicity, organism-based. Set-up: dose 20 mg/kg, route oral. To be noted: in vivo.

With `O=C(O)Cc1cc(Br)c(N(Cc2ccc(Oc3ccc(F)cc3F)cc2)Cc2cc(F)cc(F)c2)c(Br)c1`, the values for the half-maximal inhibitory concentration (IC50) on Glucocorticoid receptor [1] and on Glucocorticoid receptor [2] were 4.5 nM and 211 nM, respectively. In series [3], the half-life was 5.96 h. In series [4], this molecule gave a total exposure AUC(0-inf) of 1390 ng·h/mL. This molecule returned a bioavailability in series [5] of 10.7%. Further, the partition ratio (Kp) in series [6] was 24.8. Moreover, the Activity came to 12.3 ng/mL with Mus musculus [7]; 6.7% in the series on Mus musculus [8]; 1.32 mEq/L in the series on Mus musculus [9]; 266.6 mg/dL with Mus musculus [10]; 353.2 U/L with Mus musculus [11].
